Publication PMC12655426 (Pharmaceutics, 2025)

What was measured:
[1] = system: MRP2; details: read-out: IC50, inhibition of MRP2-mediated p-aminohippurate efflux; cited from earlier work
[2] = system: hPEPT (PEPT1, PEPT2); assay: OTA uptake in PEPT1- and PEPT2-expressing MDCK-II cells; type: in vitro ADME, human; details: 10 μM OTA, pH 6.5, 5 min
[3] = system: SLC17A3 (NPT4); details: OTA extracellular efflux; cited from earlier work
[4] = molecular target: T1, human MRP2 (Homo sapiens, UniProt Q92887); assay: OTA uptake in MRP2-expressing Sf9 membrane vesicles; type: in vitro ADME; details: 10 μM OTA, 5 min
T1 construct: purchased BioIVT; host or cells: Sf9 cell-derived membrane vesicles
T1 sequence (Q92887 whole entry): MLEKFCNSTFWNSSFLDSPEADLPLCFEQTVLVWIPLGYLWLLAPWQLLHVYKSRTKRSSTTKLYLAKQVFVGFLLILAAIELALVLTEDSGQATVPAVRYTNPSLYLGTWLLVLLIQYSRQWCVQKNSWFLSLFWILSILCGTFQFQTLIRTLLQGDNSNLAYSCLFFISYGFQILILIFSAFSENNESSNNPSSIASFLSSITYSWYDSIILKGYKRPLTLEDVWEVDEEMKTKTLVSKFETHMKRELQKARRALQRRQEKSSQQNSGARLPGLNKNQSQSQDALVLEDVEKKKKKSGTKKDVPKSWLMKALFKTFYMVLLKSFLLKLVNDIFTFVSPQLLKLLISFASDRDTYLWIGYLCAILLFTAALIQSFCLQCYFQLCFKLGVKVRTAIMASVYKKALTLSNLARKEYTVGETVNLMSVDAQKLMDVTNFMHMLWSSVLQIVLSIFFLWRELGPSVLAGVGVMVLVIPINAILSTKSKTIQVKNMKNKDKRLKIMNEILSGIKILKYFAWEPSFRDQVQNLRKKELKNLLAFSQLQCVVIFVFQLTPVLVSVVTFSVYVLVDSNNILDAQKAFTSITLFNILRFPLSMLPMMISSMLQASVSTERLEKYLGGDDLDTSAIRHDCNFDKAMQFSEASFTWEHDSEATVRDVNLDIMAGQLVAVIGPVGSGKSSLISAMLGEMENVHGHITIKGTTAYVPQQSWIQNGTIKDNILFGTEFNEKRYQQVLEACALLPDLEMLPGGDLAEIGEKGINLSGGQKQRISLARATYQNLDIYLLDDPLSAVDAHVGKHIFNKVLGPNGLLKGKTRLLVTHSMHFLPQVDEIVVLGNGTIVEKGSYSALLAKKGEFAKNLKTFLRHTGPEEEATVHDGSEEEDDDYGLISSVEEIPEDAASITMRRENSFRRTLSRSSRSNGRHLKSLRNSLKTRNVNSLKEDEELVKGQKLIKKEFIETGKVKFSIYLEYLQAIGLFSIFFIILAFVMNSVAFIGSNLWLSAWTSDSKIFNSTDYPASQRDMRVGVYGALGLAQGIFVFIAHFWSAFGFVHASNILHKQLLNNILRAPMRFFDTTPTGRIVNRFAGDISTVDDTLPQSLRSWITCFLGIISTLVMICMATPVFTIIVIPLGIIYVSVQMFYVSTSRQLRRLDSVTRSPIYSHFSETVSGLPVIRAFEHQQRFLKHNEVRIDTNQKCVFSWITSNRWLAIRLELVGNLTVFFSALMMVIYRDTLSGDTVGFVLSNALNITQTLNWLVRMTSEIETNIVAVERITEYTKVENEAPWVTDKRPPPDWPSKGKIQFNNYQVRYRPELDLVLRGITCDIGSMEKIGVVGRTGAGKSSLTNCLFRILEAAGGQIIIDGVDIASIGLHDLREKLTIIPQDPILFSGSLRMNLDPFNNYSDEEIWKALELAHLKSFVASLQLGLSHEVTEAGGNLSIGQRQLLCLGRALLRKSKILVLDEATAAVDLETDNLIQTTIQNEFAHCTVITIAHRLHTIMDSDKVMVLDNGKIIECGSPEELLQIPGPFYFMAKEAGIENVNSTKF
Procedure: The following experiments were conducted at BioIVT.

[5] = molecular target: T2, OAT4 (Homo sapiens, UniProt Q9NSA0); assay: OTA uptake in OAT4-overexpressing HEK293 cells (screen and kinetics)
T2 sequence (Q9NSA0 1-550): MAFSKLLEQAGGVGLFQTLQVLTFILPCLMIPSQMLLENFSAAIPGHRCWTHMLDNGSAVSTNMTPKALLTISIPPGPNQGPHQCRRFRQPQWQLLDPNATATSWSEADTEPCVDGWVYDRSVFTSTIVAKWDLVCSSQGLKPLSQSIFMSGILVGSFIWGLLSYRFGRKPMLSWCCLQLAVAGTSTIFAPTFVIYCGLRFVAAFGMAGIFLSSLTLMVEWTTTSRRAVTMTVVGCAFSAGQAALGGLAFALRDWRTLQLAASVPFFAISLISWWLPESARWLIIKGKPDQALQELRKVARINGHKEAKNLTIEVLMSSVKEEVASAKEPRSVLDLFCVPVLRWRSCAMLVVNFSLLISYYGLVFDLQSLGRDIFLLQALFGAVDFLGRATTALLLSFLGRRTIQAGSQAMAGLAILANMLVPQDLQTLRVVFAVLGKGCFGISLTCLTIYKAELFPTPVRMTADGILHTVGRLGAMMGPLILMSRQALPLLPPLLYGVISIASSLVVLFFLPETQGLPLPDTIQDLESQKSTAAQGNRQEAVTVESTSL
Procedure: The following experiments were conducted at the University of Washington. Mock HEK293 cells and transporter-overexpressing HEK293 cells (i.e., OAT1–4, OCT2, MATE1/2K, OCTN1, OATP1A2), mock CHO cells, and OCTN2-overexpressing CHO cells were plated in 96 well plates coated with 0.05 mg/mL of poly-D-lysine in 50 μL DPBS at a density of 800,000 cells/mL and grown until reaching over 90% of confluence. […] For uptake experiments in MATE1- and MATE2-K-expressing HEK293 cells, the pH of the incubation buffer was adjusted to 8.0 to facilitate substrate uptake. For uptake experiments in OATP1A2-expressing and OAT4-expressing HEK293 cells, the pH of the incubation buffer was adjusted to 6.5 to mimic pH of the urinary filtrate, as these are apical transporters. The incubation buffer was kept at pH 7.4 for all other transporters. […] Uptake was quenched by removing the substrates/inhibitors and washing the cells 3 times with 200 μL of ice-cold HBSS++. […] The precipitated protein was allowed to dry and subsequently solubilized overnight in 1M NaOH, neutralized with 1 M HCl the next day, and measured by BCA assay.
All cellular-based assays were conducted in technical triplicate across three independent experiments. […] This cutoff was defined a priori. […] Jnet was then treated as the initial uptake rate, and Km and Vmax values were obtained by fitting the Michaelis–Menten equation to the substrate-concentration data as described above. Intrinsic clearance (CLint) was then calculated by the formula, CLint=Vmax/Km using Vmax and Km values as calculated above. […] At steady-state, the mass balance for intracellular concentrations assuming symmetric passive permeabilities (Papical = Pbasal, taken as Papp from mock assays) and apical efflux gives: Ccell= Cbasal/1+ ke/Pa where Cbasal is the concentration in the basal chamber and ke is the first-order elimination with respect to BCRP. Because the asymmetric efflux ratio ERa is defined as: ERa=1+ ke/Pa

[6] = HEK293, 5 min, 37 °C, pH 6.5, mock-corrected

In the case of `C[C@@H]1Cc2c(Cl)cc(C(=O)N[C@@H](Cc3ccccc3)C(=O)O)c(O)c2C(=O)O1` [OTA, Ochratoxin A], the IC50 [1] is given as 58 µM, the “hPEPT-mediated transport of OTA” value [2] is given as “did not observe any hPEPT-mediated transport” and the Km [3] is given as 803 µM. The “MRP2-mediated OTA transport” value [4] was “no MRP2-mediated OTA transport”, the Km [5, 6] was 6.38 ± 1.45 µM and the Vmax [5, 6] was 96.9 ± 18.8 pmol/mg/min. The microsomal CLint ([5]; human, other cell line, pH 6.5) was 15.3 ± 0.8 µL/min/mg.
